Usually IC50 stands for the concentration needed to halve the response being measured.

Consider 21 compounds from patent publication US11440899B2, “Pyrimidine TBK/IKKe inhibitor compounds and uses thereof” (Merck Patent GmbH, priority 2017, dated 2022).

Counter-ions that a name gives are not always drawn.

In one assay the target is TBK1 (Homo sapiens (Human), UniProt Q9UHD2). As to the kind of experiment: TBK Biochemical Assay. As for the experimental part: Example 106: TBK Biochemical Assay Test compounds were transferred into Labcyte polypropylene 384 well plates ([…]-25) and diluted to 3 mM using DMSO. 3 mM test compounds were dispensed using Labcyte ECHO dose response module into Greiner 784075 plates (columns 3-12 and 13-22, 10 point 1:4) so that high concentration was 30 uM final. 100 uM of a reference compound (1 uM final high concentration). Backfilling was performed if necessary so that all wells contain 1% DMSO final: add 75 nl DMSO/well into columns 1, 2 and 24 using Labcyte Echo. add 75 nl 1.0 mM staurosporine/well into column 23 using Labcyte Echo (10 uM final) add 4.5 ul enzyme/well using multidrop dispenser add 3 ul substrate/well using multidrop dispenser incubate at 25° C. in Heidolph incubator for 90 min. add 7.5 ul 2× stop buffer using multidrop dispenser read on labchip ez reader II using TBK1.job Raw data files were opened in the Caliper LabChip Reviewer program (Version 3.0.265.0 SP2) and peak assignments were adjusted to reflect “substrate first” with the software's post-run analysis options. A spline-fit baseline was applied using the software's analysis algorithm.
Sequence of TBK1 (Q9UHD2 whole entry, species assumed): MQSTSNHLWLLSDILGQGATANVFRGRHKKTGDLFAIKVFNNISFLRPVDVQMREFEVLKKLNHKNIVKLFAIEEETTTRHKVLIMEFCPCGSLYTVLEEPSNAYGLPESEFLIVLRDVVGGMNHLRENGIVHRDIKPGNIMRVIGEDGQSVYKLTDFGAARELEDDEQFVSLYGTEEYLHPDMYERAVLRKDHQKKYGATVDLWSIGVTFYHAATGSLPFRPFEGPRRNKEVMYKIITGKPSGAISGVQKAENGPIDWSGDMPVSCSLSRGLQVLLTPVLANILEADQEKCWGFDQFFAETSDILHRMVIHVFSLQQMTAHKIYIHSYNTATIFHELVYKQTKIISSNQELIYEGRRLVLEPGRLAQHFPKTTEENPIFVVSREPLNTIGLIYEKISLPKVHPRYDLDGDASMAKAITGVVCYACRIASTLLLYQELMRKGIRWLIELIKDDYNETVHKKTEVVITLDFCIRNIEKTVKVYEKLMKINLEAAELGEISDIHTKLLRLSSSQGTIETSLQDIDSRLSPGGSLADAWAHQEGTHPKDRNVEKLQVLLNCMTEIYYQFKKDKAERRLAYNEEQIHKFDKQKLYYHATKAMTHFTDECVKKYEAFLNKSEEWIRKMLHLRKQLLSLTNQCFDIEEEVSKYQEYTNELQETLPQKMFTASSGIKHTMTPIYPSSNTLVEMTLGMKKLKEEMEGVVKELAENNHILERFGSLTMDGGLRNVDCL

The target of the next assay is IKKe (Homo sapiens (Human), UniProt Q14164). In words: IKKe Biochemical Assay. As for the experimental part:
IKKe Biochemical Assay Test compounds were transferred into Labcyte polypropylene 384 well plates ([…]-25) and diluted to 3 mM using DMSO. 3 mM test compounds were dispensed using Labcyte ECHO dose response module into Greiner 784075 plates (columns 3-12 and 13-22, 10 point 1:4) so that high concentration was 30 uM final. 100 uM of a reference compound (1 uM final high concentration). Backfilling was performed if necessary so that all wells contain 1% DMSO final: add 75 nl DMSO/well into columns 1, 2 and 24 using Labcyte Echo. add 75 nl 1.0 mM staurosporine/well into column 23 using Labcyte Echo (10 uM final) add 4.5 ul enzyme/well using multidrop dispenser add 3 ul substrate/well using multidrop dispenser incubate at 25° C. for 90 min. add 7.5 ul 2× stop buffer read on labchip ez reader II using IKKε. job Raw data files were opened in the Caliper LabChip Reviewer program (Version 3.0.265.0 SP2) and peak assignments were adjusted to reflect “substrate first” with the software's post-run analysis options. A spline-fit baseline was applied using the software's analysis algorithm.

Sequence of IKKe (Q14164 whole entry, species assumed): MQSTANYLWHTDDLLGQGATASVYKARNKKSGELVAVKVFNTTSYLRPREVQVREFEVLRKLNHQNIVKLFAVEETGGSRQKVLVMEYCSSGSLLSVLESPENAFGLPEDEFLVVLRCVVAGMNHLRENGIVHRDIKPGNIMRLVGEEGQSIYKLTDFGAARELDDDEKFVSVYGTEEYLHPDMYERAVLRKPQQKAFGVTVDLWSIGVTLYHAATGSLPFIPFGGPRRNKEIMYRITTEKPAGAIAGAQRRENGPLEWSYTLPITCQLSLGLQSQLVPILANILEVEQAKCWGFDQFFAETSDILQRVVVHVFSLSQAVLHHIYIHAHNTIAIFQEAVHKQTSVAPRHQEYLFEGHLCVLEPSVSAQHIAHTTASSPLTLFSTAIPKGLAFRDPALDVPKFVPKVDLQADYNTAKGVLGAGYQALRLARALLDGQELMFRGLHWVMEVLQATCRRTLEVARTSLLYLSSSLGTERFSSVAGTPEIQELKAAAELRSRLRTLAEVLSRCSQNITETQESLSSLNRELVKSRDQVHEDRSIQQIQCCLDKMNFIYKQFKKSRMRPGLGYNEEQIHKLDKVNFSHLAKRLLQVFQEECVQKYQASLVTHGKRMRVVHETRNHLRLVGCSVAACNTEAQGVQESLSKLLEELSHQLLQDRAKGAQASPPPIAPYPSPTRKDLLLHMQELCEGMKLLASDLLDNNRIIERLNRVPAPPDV

For `COc1nc(Nc2cc(-c3ccc(O[C@H]4CCN(C(=O)[C@H](C)O)CC4(F)F)c(C#N)c3)ncn2)ccc1C1CCN(C2COC2)CC1` [Example 93, 2-[[(4S)-3,3-difluoro-1-[(2S)-2-hydroxypropanoyl]piperidin-4-yl]oxy]-5-[6-([6-methoxy-5-[1-(oxetan-3-yl)piperidin-4-yl]pyridin-2-yl]amino)pyrimidin-4-yl]benzonitrile], the IC50 against TBK1 and on IKKe was < 100 nM in each case.

As for `COc1nc(Nc2cc(-c3ccc(OC4CCNCC4(F)F)c(C#N)c3)ncn2)ccc1C1CCN(C2COC2)CC1` (centres unmarked) [Example 83], the IC50 on TBK1 and against IKKe was < 100 nM in each case.

As to `COc1nc(Nc2cc(-c3ccc(OC4CCN(C(=O)[C@H](C)O)CC4(F)F)c(C#N)c3)ncn2)ccc1C1CCN(C2COC2)CC1` (stereo partly drawn) [Example 84, 2-([3,3-difluoro-1-[(2S)-2-hydroxypropanoyl]piperidin-4-yl]oxy)-5-[6-([6-methoxy-5-[1-(oxetan-3-yl)piperidin-4-yl]pyridin-2-yl]amino)pyrimidin-4-yl]benzonitrile], the IC50 at TBK1 and on IKKe was < 100 nM throughout.

On to `COc1nc(Nc2cc(-c3ccc(OC4CCN(C(=O)[C@@H](C)O)CC4(F)F)c(C#N)c3)ncn2)ccc1N1CCN(C)C[C@@H]1C` (stereo partly drawn) [Example 63, 2-([3,3-difluoro-1-[(2R)-2-hydroxypropanoyl]piperidin-4-yl]oxy)-5-[6-([5-[(2S)-2,4-dimethylpiperazin-1-yl]-6-methoxypyridin-2-yl]amino)pyrimidin-4-yl]benzonitrile hydrochloride], for which the IC50 at TBK1 and against IKKe was < 100 nM in each case.

With `COc1nc(Nc2cc(-c3ccc(O[C@@H]4CCN(C(=O)CO)CC4(F)F)c(C#N)c3)ncn2)ccc1N1CCN(C)CC1` [Example 61, 2-[[(4R)-3,3-difluoro-1-(2-hydroxyacetyl)piperidin-4-yl]oxy]-5-(6-[[6-methoxy-5-(4-methylpiperazin-1-yl)pyridin-2-yl]amino]pyrimidin-4-yl)benzonitrile], the IC50 against TBK1 is < 100 nM.

Regarding `COc1nc(Nc2cc(-c3ccc(OC4CCOCC4)c(C#N)c3)ncn2)ccc1C1CCN(CC(F)F)CC1` [Example 28, 5-[6-([5-[1-(2,2-difluoroethyl)piperidin-4-yl]-6-methoxypyridin-2-yl]amino)pyrimidin-4-yl]-2-(oxan-4-yloxy)benzonitrile], the IC50 against TBK1 and at IKKe was < 100 nM throughout.

As for `COc1nc(Nc2cc(-c3ccc(OC4CCNCC4(F)F)c(C#N)c3)ncn2)ccc1N1CCN(C)[C@@H](C)C1` (stereo partly drawn) [Example 80, 2-[(3,3-difluoropiperidin-4-yl)oxy]-5-[6-({5-[(3S)-3,4-dimethylpiperazin-1-yl]-6-methoxypyridin-2-yl}amino)pyrimidin-4-yl]benzonitrile], the IC50 at TBK1 and on IKKe was < 100 nM each time.

Regarding `COc1nc(Nc2cc(-c3ccc(OC4CCOCC4)c(C#N)c3)ncn2)ccc1C(=O)NC1C2COCC21` (centres unmarked) [Example 4, 6-([6-[3-cyano-4-(oxan-4-yloxy)phenyl]pyrimidin-4-yl]amino)-2-methoxy-N-[3-oxabicyclo[3.1.0]hexan-6-yl]pyridine-3-carboxamide], the IC50 against TBK1 and against IKKe was < 100 nM each time.

With `COc1nc(Nc2cc(-c3ccc(OC4CCN(C(=O)[C@@H](C)O)CC4(F)F)c(C#N)c3)ncn2)ccc1N1CCN(C2COC2)CC1` (stereo partly drawn) [Example 77, 2-([3,3-difluoro-1-[(2R)-2-hydroxypropanoyl]piperidin-4-yl]oxy)-5-[6-([6-methoxy-5-[4-(oxetan-3-yl)piperazin-1-yl]pyridin-2-yl]amino)pyrimidin-4-yl]benzonitrile], the IC50 at TBK1 and against IKKe was < 100 nM in each case.

With `COc1nc(Nc2cc(-c3ccc(OC4CCOCC4)c(C#N)c3)ncn2)ccc1N(C)CCN(C)C` [Example 11, 5-[6-[(5-[[2-(dimethylamino)ethyl](methyl)amino]-6-methoxypyridin-2-yl)amino]pyrimidin-4-yl]-2-(oxan-4-yloxy)benzonitrile], the IC50 at TBK1 and against IKKe was < 100 nM throughout.

With `COc1nc(Nc2cc(-c3ccc(OC4CCN(C(=O)CO)CC4)c(C#N)c3)ncn2)ccc1N1CCN(C)CC1` [Example 52, 2-[[1-(2-hydroxyacetyl)piperidin-4-yl]oxy]-5-(6-[[6-methoxy-5-(4-methylpiperazin-1-yl)pyridin-2-yl]amino]pyrimidin-4-yl)benzonitrile], the IC50 at TBK1 and against IKKe was < 100 nM throughout.

For the compound `COc1nc(Nc2cc(-c3ccc(O[C@@H]4CCN(C(=O)[C@H](C)O)CC4(F)F)c(C#N)c3)ncn2)ccc1N1CCN(C2COC2)C[C@@H]1C` [Example 102, 2-[[(4R)-3,3-difluoro-1-[(2S)-2-hydroxypropanoyl]piperidin-4-yl]oxy]-5-[6-([6-methoxy-5-[(2S)-2-methyl-4-(oxetan-3-yl)piperazin-1-yl]pyridin-2-yl]amino)pyrimidin-4-yl]benzonitrile], the IC50 against TBK1 and against IKKe was < 100 nM each time.

Regarding `COc1nc(Nc2cc(-c3ccc(OC4CCOCC4)c(C#N)c3)ncn2)ccc1C(=O)N(C)C` [Example 1, 6-([6-[3-cyano-4-(oxan-4-yloxy)phenyl]pyrimidin-4-yl]amino)-2-methoxy-N,N-dimethylpyridine-3-carboxamide], the IC50 at TBK1 and on IKKe was < 100 nM throughout.

On to `COc1nc(Nc2cc(-c3ccc(OC4CCOCC4)c(C#N)c3)ncn2)ccc1N1CCN(C)CC1` [Example 12, 5-(6-[[6-methoxy-5-(4-methylpiperazin-1-yl)pyridin-2-yl]amino]pyrimidin-4-yl)-2-(oxan-4-yloxy)benzonitrile], for which the IC50 on TBK1 and at IKKe was < 100 nM each time.

With `COc1nc(Nc2cc(-c3ccc(OC4CCN(C)CC4)c(C#N)c3)ncn2)ccc1N1CCN(C)CC1` [Example 51, 5-(6-[[6-methoxy-5-(4-methylpiperazin-1-yl)pyridin-2-yl]amino]pyrimidin-4-yl)-2-[(1-methylpiperidin-4-yl)oxy]benzonitrile], the IC50 at TBK1 and against IKKe was 100 to 1000 nM in each case.

For the compound `COc1nc(Nc2cc(-c3ccc(OC4CCN(C(=O)[C@H](C)O)CC4(F)F)c(C#N)c3)ncn2)ccc1N1CCN(C)C[C@H]1C` (stereo partly drawn) [Example 65, 2-([3,3-difluoro-1-[(2S)-2-hydroxypropanoyl]piperidin-4-yl]oxy)-5-[6-([5-[(2R)-2,4-dimethylpiperazin-1-yl]-6-methoxypyridin-2-yl]amino)pyrimidin-4-yl]benzonitrile hydrochloride], the IC50 on TBK1 and at IKKe was < 100 nM each time.

For `COc1nc(Nc2cc(-c3ccc(OC4CCN(C(=O)[C@@H](C)O)CC4(F)F)c(C#N)c3)ncn2)ccc1N1CCN(C)[C@H](C)C1` (stereo partly drawn) [Example 75, 2-([3,3-difluoro-1-[(2R)-2-hydroxypropanoyl]piperidin-4-yl]oxy)-5-[6-([5-[(3R)-3,4-dimethylpiperazin-1-yl]-6-methoxypyridin-2-yl]amino)pyrimidin-4-yl]benzonitrile hydrochloride], the IC50 at TBK1 and on IKKe was < 100 nM throughout.

Take `COc1nc(Nc2cc(-c3ccc(OC4CCOCC4)c(C#N)c3)ncn2)ccc1N1CCN(CC(F)F)CC1` [Example 14, 5-[6-([5-[4-(2,2-difluoroethyl)piperazin-1-yl]-6-methoxypyridin-2-yl]amino)pyrimidin-4-yl]-2-(oxan-4-yloxy)benzonitrile]: the IC50 at TBK1 and on IKKe was < 100 nM throughout.

As for `COc1nc(Nc2cc(-c3ccc(OC4CCN(C(=O)c5n[nH]c(C)n5)CC4)c(C#N)c3)ncn2)ccc1N1CCN(C)CC1` [Example 55, 5-(6-[[6-methoxy-5-(4-methylpiperazin-1-yl)pyridin-2-yl]amino]pyrimidin-4-yl)-2-([1-[(5-methyl-1H-1,2,4-triazol-3-yl)carbonyl]piperidin-4-yl]oxy)benzonitrile], the IC50 against TBK1 and against IKKe was < 100 nM throughout.

For `COc1nc(Nc2cc(-c3ccc(OC4CCNCC4(F)F)c(C#N)c3)ncn2)ccc1N1CCN(C2COC2)C[C@H]1C` (stereo partly drawn) [Example 69, 2-[(3,3-difluoropiperidin-4-yl)oxy]-5-[6-({6-methoxy-5-[(2R)-2-methyl-4-(oxetan-3-yl)piperazin-1-yl]pyridin-2-yl}amino)pyrimidin-4-yl]benzonitrile], the IC50 against TBK1 and against IKKe was < 100 nM throughout.

Regarding `CN(C)C(=O)c1ccc(Nc2cc(-c3ccc(OC4CCOCC4)c(C#N)c3)ncn2)nc1` [Example 30, 6-([6-[3-cyano-4-(oxan-4-yloxy)phenyl]pyrimidin-4-yl]amino)-N,N-dimethylpyridine-3-carboxamide], the IC50 against TBK1 and at IKKe was < 100 nM in each case.
